Experimental data from the supplement of paper PMC10307832.

Key:
Assay in all cases: relative viability (nuclei count vs DMSO), 5 days (fraction); higher = more cells survive
VE-821 + Vorinostat = compound: CS(=O)(=O)c1ccc(-c2cnc(N)c(C(=O)Nc3ccccc3)n2)cc1 [VE-821] + O=C(CCCCCCC(=O)Nc1ccccc1)NO [Vorinostat] (partner 1 µM)
Procedure, shortened: (§1)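 Cells from lung cancer lines were seeded into 1536-well plates and, one day later, dosed by pin tool. Treatments were either a single drug or a fixed dose of an anchor drug with five library-drug doses (not always all listed) in √10 steps. After 5 days, nuclei were stained in a one-step fixation (final 0.05% Triton X-100, 1% formaldehyde, 1 ug/ml Hoechst) and counted on 4× images, and relative viability is the treated-to-vehicle nuclei ratio, as the median of duplicate plates.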

Vismodegib + Vorinostat = compound: CS(=O)(=O)c1ccc(C(=O)Nc2ccc(Cl)c(-c3ccccn3)c2)c(Cl)c1 [Vismodegib] + O=C(CCCCCCC(=O)Nc1ccccc1)NO [Vorinostat] (partner 1 µM)
Procedure, shortened: as §1

VE-821 + Olaparib = compound: CS(=O)(=O)c1ccc(-c2cnc(N)c(C(=O)Nc3ccccc3)n2)cc1 [VE-821] + O=C(c1cc(Cc2n[nH]c(=O)c3ccccc23)ccc1F)N1CCN(C(=O)C2CC2)CC1 [Olaparib] (partner 8 µM)
Procedure, shortened: as §1

VE-821 + AZD7762 = compound: CS(=O)(=O)c1ccc(-c2cnc(N)c(C(=O)Nc3ccccc3)n2)cc1 [VE-821] + NC(=O)Nc1cc(-c2cccc(F)c2)sc1C(=O)N[C@H]1CCCNC1 [AZD7762] (partner 0.2 µM)
Procedure, shortened: as §1

Row | Cell Line | relative viability (VE-821 + Vorinostat; first compound 0.08 µM) | relative viability (VE-821 + Vorinostat; first compound 0.253 µM) | relative viability (VE-821 + Vorinostat; first compound 0.8 µM) | relative viability (VE-821 + Vorinostat; first compound 2.53 µM) | relative viability (VE-821 + Vorinostat; first compound 8 µM) | relative viability (Vismodegib + Vorinostat; first compound 0.08 µM) | relative viability (Vismodegib + Vorinostat; first compound 0.253 µM) | relative viability (Vismodegib + Vorinostat; first compound 0.8 µM) | relative viability (Vismodegib + Vorinostat; first compound 2.53 µM) | relative viability (Vismodegib + Vorinostat; first compound 8 µM) | relative viability (VE-821 + Olaparib; first compound 0.08 µM) | relative viability (VE-821 + Olaparib; first compound 0.253 µM) | relative viability (VE-821 + Olaparib; first compound 0.8 µM) | relative viability (VE-821 + Olaparib; first compound 2.53 µM) | relative viability (VE-821 + Olaparib; first compound 8 µM) | relative viability (VE-821 + AZD7762; first compound 0.08 µM) | relative viability (VE-821 + AZD7762; first compound 0.253 µM) | relative viability (VE-821 + AZD7762; first compound 0.8 µM) | relative viability (VE-821 + AZD7762; first compound 2.53 µM) | relative viability (VE-821 + AZD7762; first compound 8 µM)
1 | EMC-BAC-2 | 0.495 | 0.423 | 0.431 | 0.416 | 0.338 | 0.515 | 0.302 | 0.418 | 0.476 | 0.422 | 0.606 | 0.495 | 0.559 | 0.46 | 0.383 | 1.15 | 1.02 | 1.12 | 1.19 | 0.587
2 | NCI-H460 | 1.02 | 0.619 | 0.528 | 0.111 | 0.0517 | 0.71 | 0.707 | 0.711 | 0.691 | 0.75 | 0.52 | 0.378 | 0.231 | 0.138 | 0.118 | 0.568 | 0.411 | 0.217 | 0.117 | 0.0688
3 | ABC-1 | 1.32 | 1.06 | 1.11 | 1.26 | 1.01 | 1.55 | 0.987 | 0.873 | 1.23 | 1.24 | 0.776 | 0.873 | 0.755 | 0.869 | 0.757 | 0.86 | 0.767 | 0.94 | 0.714 | 0.628
4 | 201T | 0.991 | 0.947 | 0.992 | 1.01 | 0.752 | 0.956 | 0.952 | 0.973 | 0.977 | 0.924 | 0.859 | 0.819 | 0.826 | 0.748 | 0.623 | 0.67 | 0.578 | 0.585 | 0.648 | 0.46
5 | NCI-H1993 | 0.759 | 0.657 | 0.966 | 0.762 | 0.548 | 0.854 | 0.69 | 0.728 | 0.779 | 0.794 | 1.21 | 0.943 | 1.03 | 1.01 | 0.942 | 0.958 | 0.669 | 0.603 | 0.723 | 0.552
6 | RERF-LC-KJ | 0.765 | 0.731 | 0.609 | 0.761 | 0.623 | 0.669 | 0.603 | 0.78 | 0.772 | 0.659 | 0.946 | 0.819 | 0.851 | 0.698 | 0.49 | 0.994 | 0.975 | 0.974 | 1.03 | 0.688
7 | NCI-H1755 | 0.778 | 0.638 | 0.734 | 0.792 | 0.615 | 0.836 | 0.659 | 0.85 | 0.809 | 0.762 | 0.928 | 0.859 | 0.854 | 0.893 | 0.719 | 0.434 | 0.368 | 0.38 | 0.323 | 0.175
8 | NCI-H1666 | 1.14 | 1.06 | 1.18 | 1.01 | 0.942 | 1.04 | 0.957 | 1 | 1.01 | 1.06 | 0.758 | 0.742 | 0.839 | 0.944 | 0.79 | 0.753 | 0.705 | 0.798 | 0.705 | 0.713
